Test results from article PMC11310598, “Gestodene, a novel positive allosteric modulator of PAR1, enhances PAR1-mediated human platelet aggregation” (Frontiers in Pharmacology, 2024).

Target: T1, Protease-activated receptor 1 (PAR1) (Homo sapiens, UniProt P25116)
T1 construct: gene F2R; endogenous PAR1 in HT29 cells
T1 sequence (P25116 42-425): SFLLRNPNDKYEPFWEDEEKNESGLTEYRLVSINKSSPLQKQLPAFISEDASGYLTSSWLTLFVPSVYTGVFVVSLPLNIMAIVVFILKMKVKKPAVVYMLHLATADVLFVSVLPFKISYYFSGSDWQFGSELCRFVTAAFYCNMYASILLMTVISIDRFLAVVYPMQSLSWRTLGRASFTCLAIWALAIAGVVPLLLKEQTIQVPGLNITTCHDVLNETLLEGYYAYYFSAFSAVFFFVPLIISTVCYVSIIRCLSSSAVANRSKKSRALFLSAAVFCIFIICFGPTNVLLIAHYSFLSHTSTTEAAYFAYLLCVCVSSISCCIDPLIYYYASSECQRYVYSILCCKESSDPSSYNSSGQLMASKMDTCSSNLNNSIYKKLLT
Assay: Fluo-4 intracellular calcium, potentiation of thrombin or PAR1-AP response; blocked by vorapaxar
Assay type: cell-based

Structure (SMILES): C#C[C@]1(O)C=C[C@H]2[C@@H]3CCC4=CC(=O)CC[C@@H]4[C@H]3CC[C@@]21CC [gestodene]
- EC50: 4.54 ± 0.27 µM
